Test system: Genes belonging to other category
Assay: DNA chip mRNA expression in yeast, genes belonging to other category (Table 9)
Type: cell-based, Saccharomyces cerevisiae S288C
Outline: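 Values are treated/untreated fluorescence ratios from a whole-genome yeast DNA chip hybridized over 12 hours at 65° C with Cy3- or Cy5-labelled cDNA from poly(A) mRNA. Log-phase S288C yeast in YPD at 25° C had received a single toxic chemical for two hours, dosed to slow growth without killing.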

## N#Cc1c(Cl)c(Cl)c(Cl)c(C#N)c1Cl [(9), 2,4,5,6-tetrachloro-1,3-benzenedicarbonitrile]
Yeast gene YAL055W
  The level of expressed mRNA in the presence of chemical substance/The level of expressed mRNA in the absence of chemical substance: 1.0
Yeast gene YAR010C
  The level of expressed mRNA in the presence of chemical substance/The level of expressed mRNA in the absence of chemical substance: 1.2
Yeast gene YBL005W-A
  The level of expressed mRNA in the presence of chemical substance/The level of expressed mRNA in the absence of chemical substance: 0.8
Yeast gene YBL041W
  The level of expressed mRNA in the presence of chemical substance/The level of expressed mRNA in the absence of chemical substance: 2.8
Yeast gene YBL043W
  The level of expressed mRNA in the presence of chemical substance/The level of expressed mRNA in the absence of chemical substance: 0.5
Yeast gene YBL078C
  The level of expressed mRNA in the presence of chemical substance/The level of expressed mRNA in the absence of chemical substance: 12.3
Yeast gene YBL102W
  The level of expressed mRNA in the presence of chemical substance/The level of expressed mRNA in the absence of chemical substance: 2.3
Yeast gene YBR046C
  The level of expressed mRNA in the presence of chemical substance/The level of expressed mRNA in the absence of chemical substance: 4.6
Yeast gene YBR139W
  The level of expressed mRNA in the presence of chemical substance/The level of expressed mRNA in the absence of chemical substance: 2.3
Yeast gene YBR177C
  The level of expressed mRNA in the presence of chemical substance/The level of expressed mRNA in the absence of chemical substance: 2.1
Yeast gene YBR212W
  The level of expressed mRNA in the presence of chemical substance/The level of expressed mRNA in the absence of chemical substance: 2.7
Yeast gene YBR214W
  The level of expressed mRNA in the presence of chemical substance/The level of expressed mRNA in the absence of chemical substance: 2.2
Yeast gene YCL020W
  The level of expressed mRNA in the presence of chemical substance/The level of expressed mRNA in the absence of chemical substance: 0.9
Yeast gene YCL027W
  The level of expressed mRNA in the presence of chemical substance/The level of expressed mRNA in the absence of chemical substance: 0.7
Yeast gene YCL033C
  The level of expressed mRNA in the presence of chemical substance/The level of expressed mRNA in the absence of chemical substance: 2.3
Yeast gene YCL067C
  The level of expressed mRNA in the presence of chemical substance/The level of expressed mRNA in the absence of chemical substance: 1.4
Yeast gene YCR004C
  The level of expressed mRNA in the presence of chemical substance/The level of expressed mRNA in the absence of chemical substance: 4.7
Yeast gene YCR062W
  The level of expressed mRNA in the presence of chemical substance/The level of expressed mRNA in the absence of chemical substance: 0.7
Yeast gene YCR071C
  The level of expressed mRNA in the presence of chemical substance/The level of expressed mRNA in the absence of chemical substance: 0.6
Yeast gene YCR088W
  The level of expressed mRNA in the presence of chemical substance/The level of expressed mRNA in the absence of chemical substance: 0.8
Yeast gene YDL007W
  The level of expressed mRNA in the presence of chemical substance/The level of expressed mRNA in the absence of chemical substance: 3.8
Yeast gene YDL008W
  The level of expressed mRNA in the presence of chemical substance/The level of expressed mRNA in the absence of chemical substance: 2.3
Yeast gene YDL018C
  The level of expressed mRNA in the presence of chemical substance/The level of expressed mRNA in the absence of chemical substance: 1.0
Yeast gene YDL065C
  The level of expressed mRNA in the presence of chemical substance/The level of expressed mRNA in the absence of chemical substance: 2.4
Yeast gene YDL197C
  The level of expressed mRNA in the presence of chemical substance/The level of expressed mRNA in the absence of chemical substance: 2.6
Yeast gene YDL229W
  The level of expressed mRNA in the presence of chemical substance/The level of expressed mRNA in the absence of chemical substance: 1.4
Yeast gene YDL230W
  The level of expressed mRNA in the presence of chemical substance/The level of expressed mRNA in the absence of chemical substance: 2.6
Yeast gene YDL238C
  The level of expressed mRNA in the presence of chemical substance/The level of expressed mRNA in the absence of chemical substance: 1.7
Yeast gene YDR055W
  The level of expressed mRNA in the presence of chemical substance/The level of expressed mRNA in the absence of chemical substance: 0.8
Yeast gene YDR084C
  The level of expressed mRNA in the presence of chemical substance/The level of expressed mRNA in the absence of chemical substance: 0.6
Yeast gene YDR085C
  The level of expressed mRNA in the presence of chemical substance/The level of expressed mRNA in the absence of chemical substance: 0.4
Yeast gene YDR099W
  The level of expressed mRNA in the presence of chemical substance/The level of expressed mRNA in the absence of chemical substance: 2.4
Yeast gene YDR104C
  The level of expressed mRNA in the presence of chemical substance/The level of expressed mRNA in the absence of chemical substance: 2.8
Yeast gene YDR115W
  The level of expressed mRNA in the presence of chemical substance/The level of expressed mRNA in the absence of chemical substance: 1.1
Yeast gene YDR125C
  The level of expressed mRNA in the presence of chemical substance/The level of expressed mRNA in the absence of chemical substance: 0.7
Yeast gene YDR188W
  The level of expressed mRNA in the presence of chemical substance/The level of expressed mRNA in the absence of chemical substance: 2.9
Yeast gene YDR257C
  The level of expressed mRNA in the presence of chemical substance/The level of expressed mRNA in the absence of chemical substance: 3.0
Yeast gene YDR259C
  The level of expressed mRNA in the presence of chemical substance/The level of expressed mRNA in the absence of chemical substance: 1.0
Yeast gene YDR315C
  The level of expressed mRNA in the presence of chemical substance/The level of expressed mRNA in the absence of chemical substance: 1.1
Yeast gene YDR358W
  The level of expressed mRNA in the presence of chemical substance/The level of expressed mRNA in the absence of chemical substance: 2.9
Yeast gene YDR388W
  The level of expressed mRNA in the presence of chemical substance/The level of expressed mRNA in the absence of chemical substance: 1.4
Yeast gene YDR427W
  The level of expressed mRNA in the presence of chemical substance/The level of expressed mRNA in the absence of chemical substance: 2.3
Yeast gene YDR432W
  The level of expressed mRNA in the presence of chemical substance/The level of expressed mRNA in the absence of chemical substance: 0.7
Yeast gene YDR481C
  The level of expressed mRNA in the presence of chemical substance/The level of expressed mRNA in the absence of chemical substance: 1.9
Yeast gene YDR506C
  The level of expressed mRNA in the presence of chemical substance/The level of expressed mRNA in the absence of chemical substance: 1.9
Yeast gene YDR510W
  The level of expressed mRNA in the presence of chemical substance/The level of expressed mRNA in the absence of chemical substance: 2.7
Yeast gene YDR515W
  The level of expressed mRNA in the presence of chemical substance/The level of expressed mRNA in the absence of chemical substance: 5.8
Yeast gene YEL042W
  The level of expressed mRNA in the presence of chemical substance/The level of expressed mRNA in the absence of chemical substance: 0.2
Yeast gene YEL052W
  The level of expressed mRNA in the presence of chemical substance/The level of expressed mRNA in the absence of chemical substance: 3.0
Yeast gene YEL066W
  The level of expressed mRNA in the presence of chemical substance/The level of expressed mRNA in the absence of chemical substance: 1.3

Reference: patent publication US8192962B2, “Processes for detecting toxic substances” (Daikin Industries, Ltd., priority 2001, dated 2012)
